# Results from PMC7951571 (Heliyon, 2021).
# Read-outs that look alike come from different tables or passages of the source. Residues, ends and D or L forms follow the SMILES beside them. *: point of attachment. Cbz = O=C(OCc1ccccc1)*; CH2F = FC*
# What was measured:
# [1] = biological target: rhACE2 - SARS-CoV-2 Spike (RBD) protein interaction (Homo sapiens, UniProt Q9BYF1); assay: biochemical; type: binding, human; SARS-CoV-2
# [2] = biological target: recombinant human ACE2 (rhACE2) (Homo sapiens, UniProt Q9BYF1); assay: ACE2 inhibitor screening assay; type: biochemical
# Sequence of recombinant human ACE2 (rhACE2) (Q9BYF1 18-805): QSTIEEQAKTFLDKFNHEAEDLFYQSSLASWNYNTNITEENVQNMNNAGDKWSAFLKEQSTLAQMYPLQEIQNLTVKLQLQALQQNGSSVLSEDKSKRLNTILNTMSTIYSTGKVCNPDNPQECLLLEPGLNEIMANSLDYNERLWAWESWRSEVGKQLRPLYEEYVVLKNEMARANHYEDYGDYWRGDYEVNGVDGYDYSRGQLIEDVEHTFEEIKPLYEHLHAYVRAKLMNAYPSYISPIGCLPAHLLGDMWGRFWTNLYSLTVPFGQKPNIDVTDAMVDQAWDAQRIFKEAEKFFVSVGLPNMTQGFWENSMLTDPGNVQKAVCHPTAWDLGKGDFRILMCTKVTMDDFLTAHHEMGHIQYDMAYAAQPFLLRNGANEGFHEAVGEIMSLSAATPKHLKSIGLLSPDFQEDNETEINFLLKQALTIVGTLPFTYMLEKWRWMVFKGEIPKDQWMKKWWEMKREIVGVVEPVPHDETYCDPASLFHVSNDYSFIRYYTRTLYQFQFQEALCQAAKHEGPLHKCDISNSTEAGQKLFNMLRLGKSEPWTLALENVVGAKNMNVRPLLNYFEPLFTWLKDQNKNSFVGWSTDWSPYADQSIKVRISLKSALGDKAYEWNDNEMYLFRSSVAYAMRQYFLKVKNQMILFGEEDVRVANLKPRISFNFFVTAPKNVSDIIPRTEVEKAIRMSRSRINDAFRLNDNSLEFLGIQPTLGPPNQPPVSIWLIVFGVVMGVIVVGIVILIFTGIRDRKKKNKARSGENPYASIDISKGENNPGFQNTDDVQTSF
# Vero E6 cells = conditions: for Concentration at Maximum % Viability: monkey
# in vitro = conditions: African green monkey
# SARS-CoV-2 USA_WA1/2020 = type: cell-based
# [3] = tested on: ACE2-Spike interaction (SARS-CoV, SARS-CoV2, NL63S); conditions: cited from earlier work
# [4] = Spike (RBD)-ACE2 Interaction Assay IC50_1
# [5] = Spike (RBD)-ACE2 Interaction Assay IC50_2
# Sequence of rhACE2 - SARS-CoV-2 Spike (RBD) protein interaction (Q9BYF1 18-740): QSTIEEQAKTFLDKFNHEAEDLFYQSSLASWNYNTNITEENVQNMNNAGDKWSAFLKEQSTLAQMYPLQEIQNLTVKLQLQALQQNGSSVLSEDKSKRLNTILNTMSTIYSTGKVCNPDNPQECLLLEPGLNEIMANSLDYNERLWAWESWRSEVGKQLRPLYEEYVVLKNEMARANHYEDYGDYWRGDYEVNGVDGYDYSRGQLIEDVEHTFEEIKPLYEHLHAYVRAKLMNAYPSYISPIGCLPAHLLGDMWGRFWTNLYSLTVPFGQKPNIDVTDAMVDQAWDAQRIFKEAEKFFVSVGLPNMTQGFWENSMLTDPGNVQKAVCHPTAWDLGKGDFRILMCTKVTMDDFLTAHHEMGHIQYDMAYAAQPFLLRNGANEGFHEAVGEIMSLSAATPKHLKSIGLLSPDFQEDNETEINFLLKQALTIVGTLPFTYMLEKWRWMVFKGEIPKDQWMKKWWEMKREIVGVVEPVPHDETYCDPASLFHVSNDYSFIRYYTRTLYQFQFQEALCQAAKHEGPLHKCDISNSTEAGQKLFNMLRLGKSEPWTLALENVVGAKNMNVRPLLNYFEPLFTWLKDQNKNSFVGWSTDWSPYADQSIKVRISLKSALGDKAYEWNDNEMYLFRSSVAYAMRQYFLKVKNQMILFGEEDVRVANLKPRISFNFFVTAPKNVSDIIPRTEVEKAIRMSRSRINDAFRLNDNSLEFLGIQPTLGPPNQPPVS
SMILES,"IC50 [1, 4]",Concentration at Minimum % Viability (Vero E6 cells; African green monkey),Concentration at Maximum % Viability (Vero E6 cells),CC50 (in vitro),viability (in vitro; Maximum Viability (%)),viability (in vitro; Minimum Viability (%)),Maximum Inhibition (%) (SARS-CoV-2 USA_WA1/2020),other results
"Oc1c(Br)cc(Cl)c2cccnc12 [CLBQ14, 7-bromo-5-chloro-8-hydroxyquinoline]",2.76 µM,15000 nM,120 nM,> 30 µM,108%,53.5%,,"IC50 [1, 5]: 3.06 µM; IC50 [2]: 5.55 µM"
"Oc1c(Cl)cc(Cl)c2cccnc12 [CLCQ, 5,7-dichloro-8-hydroxyquinoline]",1.74 µM,15000 nM,60 nM,> 30 µM,102%,60.8%,,"IC50 [1, 5]: 1.91 µM; IC50 [2]: < 10 µM"
"Oc1c(I)cc(Cl)c2cccnc12 [CLQ, 5-chloro-7-iodo-8-quinolinol]",0.85 µM,30000 nM,230 nM,> 30 µM,106%,61.8%,,
CC(C)C[C@H](NC(=O)OCc1ccccc1)C(=O)N[C@@H](CC(C)C)C(=O)N[C@@H](Cc1ccc(O)cc1)C(=O)CF [Calpain Inhibitor IV] (Cbz-Leu-Leu-Tyr-CH2F),,,220 nM,,,,95.75%,"IC50 (SARS-CoV-2 USA_WA1/2020; read-out: IC50, SARS-CoV-2 induced CPE): 0.41 µM; CC50 (Vero E6 cells): > 7.17 µM; Concentration at Minimum % Viability (Vero E6 cells): 3590 nM; Maximum Viability (%) (Vero E6 cells): 104.99%; Minimum Viability (%) (Vero E6 cells): 98.29%"
CCN(CC)CCCC(C)Nc1ccnc2cc(Cl)ccc12 (stereo not shown) [Chloroquine],,15000 nM,60 nM,> 30 µM,107%,95.6%,111.08%,
"CCOC(=O)[C@H]1O[C@@H]1C(=O)N[C@@H](CC(C)C)C(=O)NCCC(C)C [E64d (Aloxistatin), Aloxistatin]",,15000 nM,120 nM,> 30 µM,113%,100%,98.55%,
CCN(CCO)CCCC(C)Nc1ccnc2cc(Cl)ccc12 (stereo not shown) [Hydroxychloroquine],,3750 nM,60 nM,> 30 µM,104%,96.9%,93.14%,
"CC(C)C[C@H](N[C@@H](Cc1cncn1Cc1cc(Cl)cc(Cl)c1)C(=O)O)C(=O)O [MLN-4760, (S,S)-2-{1-Carboxy-2-[3-(3,5-dichloro-benzyl)-3H-imidazol-4-yl]-ethylamino}-4-methyl-pentanoic acid]",,,,,,,,disruption of ACE2-Spike interaction [3]: does not disrupt ACE2-Spike interaction
CCC(CC)COC(=O)[C@H](C)N[P@](=O)(OC[C@H]1O[C@@](C#N)(c2ccc3c(N)ncnn23)[C@H](O)[C@@H]1O)Oc1ccccc1 [Remdesivir],,3750 nM,60 nM,> 30 µM,104%,97.5%,100.27%,
"[Cl-].[Cl-].[Zn+2] [ZnCl2, Zinc Chloride]",,,,,,,,exopeptidase activity of rhACE2 in the presence of ZnCl2 alone ([2]; 100μM to 100nM): increasing exopeptidase activity
